# Reference: patent publication US10238631B2, “Sesquiterpene derivatives and their use in inflammation or cancer treatment” (Academia Sinica, priority 2014, dated 2019)
# Read-outs that look alike come from different tables or passages of the source.
# Columns and labels:
# [1] = system: MDA-MB-231 cell migration; experiment: Boyden chamber migration assay; assay type: cell-based, human; details: 24 h
# Method: (§1) To test the anti-migratory and anti-invasive effect of DET. DETD-35 and PTX. Boyden chambers assay was carried out. The lower well of the chamber (6.5 mm diameter, […]; Costar. Cambridge, Mass., USA) was added 10% fetal bovine serum (FBS) as a chemoattractant and filled with DMEM culture medium containing vehicle (DMSO, 0.05%), DET (2.5 and 4 μM). DETD-35 (1.25 and 2.5 μM), or PTX (2.5 and 4 μM). MDA-MB-231 cells were placed into the upper chamber (5×10^4 cells per insert) with the medium containing 0.1% FBS. After 24 h incubation at 37° C. in a 5% CO2 atmosphere, non-migrating cells were scraped from the upper surface of the membrane using a cotton swab, and the migrated cells remaining in the well were fixed and stained with DAPI solution (4,6-diamidino-2-phenylindole, 1 μg/ml). The migrating cells were counted in three fields at 20× original magnifications by inverted fluorescence microscopy. To test the anti-invasive effect of the compounds, 8-μm filters were pre-coating with Matrigel (30 μg per filter) and incubated at 37° C. for 2 h, then followed the protocol of migration assay descried about.
# [2] = system: MDA-MB-231 lung metastasis; experiment: Lung metastasis of MDA-MB-231 cells in SCID mice; assay type: in vivo, mouse; details: post-treatment, 5 mg/kg i.p. every three days
# Method: Female SCID mice (5 weeks old, average body weight 19.59±1.26 g) were assigned to 8 groups: PIX group (5 mg/kg paclitaxel), DETD-35-2 group (2 mg/kg DETD-35), DETD-35-10 group (10 mg/kg DETD-35). PTX-5+DETD-35-2 group (5 mg/kg paclitaxel and 2 mg/kg DETD-35 administration alternatively for eleven doses of paclitaxel (PTX) and ten doses of DETD-35 in total), tumor (vehicle) group (5% DMSO), and sham group (5% DMSO). Pre-DETD-35-10 group was the mice administered 10 mg/kg DETD-35 every two days for three doses before the i.v. injection of 1×10^6 MDA-MB-231 tumor cells at day 0. All other drug or compounds were administered i.p. every three days starting from day 1. At the end of experiment (day 71), the test mice were sacrificed by cervical dislocation. The lung, liver, kidney, and spleen organs were removed and recorded weights and calculated for organ index (% of organ weight/body weight). The number of tumor colonies on lungs of test mice was counted.
# [3] = system: MDA-MB-231 cell invasion; experiment: Boyden chamber (Matrigel) invasion assay; assay type: cell-based, human; details: 24 h
# Method: as §1
# [4] = system: MDA-MB-231 (ER−, PR−, Her2−) human breast cancer cells; experiment: MTT cell viability assay, MDA-MB-231 cells; assay type: cell-based; details: for IC50: Homo sapiens
# Summary of the method: (§2)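 Seed 2×10^3 to 1×10^4 cells/well, overnight. Treat with compounds 24 h to 72 h. Add MTT, read OD570. Express survival relative to 0.5% DMSO vehicle (100%).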
# [5] = system: U-87MG brain cancer cell line; experiment: MTT cell viability assay, U-87MG; assay type: cell-based; details: Homo sapiens, 24 h
# Method: (§3) Normal or cancer cells (2×10^3 to 1×10^4 cells/well) were seeded in 96-well plate for overnight and treated with different compounds for 24 h to 72 h. Cells growth were determined by MTT-based colorimetric assays according to. Viability of the test cells treated with vehicle (0.5% DMSO) only was defined as 100% viable. Survival of cells after treatment with DETDs was calculated using the following formula: viable cell number (%)=OD570 (treated cell culture)/OD570 (vehicle control)×100.
# (§4) Based on toxicity results of DET and DETDs on different breast cancer and melanoma cell lines, we selected DETD-6, -32, -35 and -39, under the consideration of structure activity relationship for evaluating their suppression effect against other cancer types of cell line with indicated tumor origin in Table 5. […] The cells were treated with compounds for 24 h and then subjected to MTT assays.
# [6] = system: MeWo (No NRAS or BRAF mutation); experiment: MTT cell viability assay, MeWo melanoma; assay type: cell-based, human; details: Homo sapiens, MeWo, 24 h
# Summary of the method: (§5)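 Overnight-seeded cells (2×10^3–1×10^4/well) → compound 24–72 h → MTT, OD570; % viable = treated/vehicle ×100, vehicle 0.5% DMSO.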
# [7] = system: LPS-induced nitric oxide (NO) production in RAW 264.7 cells; experiment: Nitric oxide production in LPS-stimulated macrophages (Griess); assay type: cell-based, mouse; details: Mus musculus; LPS-stimulated RAW264.7, nitrite 24 h after LPS
# Summary of the method: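 RAW 264.7 macrophages (2×10^5 cells/well) were pretreated with compound for 1 h and then stimulated with 100 ng/μL LPS for 24 h. NO was measured as nitrite in the medium by the Griess reaction. Viability was checked in parallel by MTT.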
# [8] = system: NES-SA uterus cancer cell line; experiment: MTT cell viability assay, NES-SA; assay type: cell-based; details: 24 h
# Method: as §3, §4
# [9] = system: RAW264.7 (normal macrophage); experiment: MTT cell viability assay, RAW264.7 macrophages; assay type: cell-based, mouse; details: Mus musculus, RAW264.7, 24 h
# Summary of the method: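 RAW264.7 macrophages (2×10^5 cells/well) pretreated with compounds 1 h, then incubated 24 h with or without 100 ng/μL LPS. Viability by MTT colorimetric assay run in parallel with Griess nitrite measurement.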
# [10] = system: Melanocyte (Normal cells); experiment: MTT cell viability assay, normal melanocytes; assay type: cell-based, human; details: Homo sapiens, Melanocyte, 24 h
# Summary of the method: as §5
# [11] = system: MCF-7 (ER+, Her2−) human breast cancer cells; experiment: MTT cell viability assay, MCF-7 cells; assay type: cell-based
# Summary of the method: as §2
# [12] = system: KATO III stomach cancer cell line; experiment: MTT cell viability assay, KATO III; assay type: cell-based; details: Homo sapiens, 24 h
# Method: as §3, §4
# [13] = system: TS/A (ER+, Her2−) murine mammary cancer cells; experiment: MTT cell viability assay, TS/A cells; assay type: cell-based; details: Mus musculus
# Summary of the method: as §2
# [14] = system: A498 kidney cancer cell line; experiment: MTT cell viability assay, A498; assay type: cell-based; details: Homo sapiens, 24 h
# Method: as §3, §4
# [15] = system: PC3 (Prostate); experiment: MTT cell viability assay, PC3; assay type: cell-based; details: 24 h
# Method: as §3, §4
# [16] = system: PC6 lung cancer cell line; experiment: MTT cell viability assay, PC6; assay type: cell-based; details: 24 h
# Method: as §3, §4
# [17] = system: A2058 (BRAF mutation); experiment: MTT cell viability assay, A2058 melanoma; assay type: cell-based, human; details: Homo sapiens, A2058, 24 h
# Summary of the method: as §5
# [18] = system: HTB-68 (NRAS mutation); experiment: MTT cell viability assay, HTB-68 melanoma; assay type: cell-based, human; details: Homo sapiens, 24 h
# Summary of the method: as §5
# [19] = system: HCT-116 colon cancer cell line; experiment: MTT cell viability assay, HCT-116; assay type: cell-based; details: Homo sapiens, 24 h
# Method: as §3, §4
# [20] = system: A375 (BRAF mutation); experiment: MTT cell viability assay, A375 melanoma; assay type: cell-based, human; details: Homo sapiens, A-375, 24 h, 24 h, MTT; read-out: IC50 on cell viability, A375 (BRAF mutation)
# Summary of the method: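 A375 cells were seeded at 2×10^3 to 1×10^4 per well overnight and then exposed to compounds for 24 h to 72 h. Viability was measured by MTT absorbance at OD570 relative to 0.5% DMSO vehicle (100%), and IC50 was derived from it. Combination with PLX4032 was scored by combination index.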
# [21] = system: M10 normal mammary epithelial cells; experiment: MTT cell viability assay, M10 normal cells; assay type: cell-based, human; details: Homo sapiens, Epithelial cell, 24 h
# Summary of the method: as §2
# [22] = system: U937 lymphoma line; experiment: MTT cell viability assay, U937; assay type: cell-based; details: Homo sapiens, U-937, 24 h
# Method: as §3, §4
# [23] = system: B16-F10 (NRAS mutation); experiment: MTT cell viability assay, B16-F10 melanoma; assay type: cell-based; details: Mus musculus, B16-F10, 24 h
# Summary of the method: as §5
# [24] = system: SK-N-MC neuroepithelioma line; experiment: MTT cell viability assay, SK-N-MC; assay type: cell-based; details: Homo sapiens, 24 h
# Method: as §3, §4
# [25] = system: melanoma cell lines B16-F10, MeWo, A375, A2058, HTB-68; experiment: MTT cell viability assay, all melanoma cell lines; assay type: cell-based; details: 24 h, read-out: IC50 values over all types of melanoma cell lines
# Method: as §3
# Several genes are involved in melanoma development and pathology; specifically, mutation in V-raf murine sarcoma viral oncogene homolog B1 (B-RAF) occurs approximately 50-60% and in neuroblastoma RAS viral oncogene homolog (N-RAS) occurs about 30% of malignant melanomas. A spectrum of wild-type or mutated melanoma cell lines including B16-F10, MeWo, A375, A2058, HTB-68, and melanocyte were used to study anti-melanoma cell proliferation activity of parental phytocompound DET and newly synthesized DETDs.
# [26] = higher concentrations (DET 4 μM, DETD-35 2.5 μM, PTX 4 μM)
# [27] = lower concentrations (DET 2.5 μM, DETD-35 1.25 μM, PTX 2.5 μM)
# [28] = MCF7, 24 h, read-out: IC50 on cell viability, MCF-7 (ER+, Her2−)
# [29] = 24 h, read-out: IC50 on cell viability, TS/A (ER+, Her2−)
# [30] = MDA-MB-231, 24 h, read-out: IC50 on cell viability, MDA-MB-231 (ER−, PR−, Her2−)
# [31] = 24 h, read-out: IC50 on cell viability, B16-F10 (NRAS mutation)
IC50 [6] [µM],IC50 [7] [µM],"IC50 [11, 28] [µM]","IC50 [13, 29] [µM]",IC50 [17] [µM],IC50 [18] [µM],"IC50 [4, 30] [µM]",IC50 [20] [µM],"IC50 [23, 31] [µM]",IC50 [25] [µM],Structure (SMILES),IC50 [9] [µM],IC50 [10] [µM],IC50 [21] [µM],also measured
,,,,,,,,,,"CC(=O)O[C@H]1C(=O)[C@@]2(C)[C@H]([C@H](OC(=O)c3ccccc3)[C@]3(O)C[C@H](OC(=O)[C@H](O)[C@@H](NC(=O)c4ccccc4)c4ccccc4)C(C)=C1C3(C)C)[C@]1(OC(C)=O)CO[C@@H]1C[C@@H]2O [PTX, paclitaxel]",,,,"reduction of cell migration vs vehicle control [1, 26]: 88%; suppression of cell migration vs vehicle control [1, 27]: 87%; reduction of number of tumor foci in lungs vs tumor control [2]: 62%; inhibition of cell invasion [3, 26]: 90%; inhibition of cell invasion [3, 27]: 85%; IC60 on MDA-MB-231 cells ([4]; 24 h): 0.0238 µM"
> 10,2.6,4.3,1.9,> 10,> 10,3.9,> 10,4.2,,C=C1C(=O)O[C@H]2CC3=C[C@@H](C/C(C)=C/[C@@H](OC(=O)c4ccc(OC)cc4)[C@H]12)OC3=O [DETD-32],> 10,> 10,> 7.5,"IC50 [5]: 0.42 µM; IC50 [8]: 0.5 µM; IC50 ([11]; MCF7, Table 5, 24 h, read-out: IC50 viability MCF-7 (Breast)): 4.3 µM; IC50 [12]: 0.82 µM; IC50 ([13]; Table 5, 24 h, read-out: IC50 viability TS/A (mouse) (Breast)): 1.9 µM; IC50 [14]: 1.48 µM; IC50 [15]: 6.2 µM; IC50 [16]: 0.47 µM; IC50 ([4]; MDA-MB-231, Table 5, 24 h, read-out: IC50 viability MDA-MB-231 (Breast)): 3.9 µM; IC50 [19]: 0.36 µM; IC50 [22]: 0.39 µM; IC50 ([23]; Table 5, 24 h, read-out: IC50 viability B16-F10 (mouse) (Skin)): 4.2 µM; IC50 [24]: 0.51 µM"
9,2.9,> 7.5,2.8,6.1,5.3,4.1,2.6,4.8,1.6 to 9.9,C=C1C(=O)OC2CC3=C[C@@H](C/C(C)=C/[C@@H](OC(=O)C(C)(OC)c4ccc5ccccc5c4)[C@H]12)OC3=O (stereo partly shown) [DETD-55],> 10,> 10,> 7.5,
6,3.5,4.1,4.1,5.5,5,3.8,2.8,5.2,1.6 to 9.9,C=C1C(=O)OC2CC3=C[C@@H](C/C(C)=C/C(OC(=O)[C@@H](C)c4ccc5cc(OC)ccc5c4)[C@H]12)OC3=O (stereo partly shown) [DETD-53],> 10,> 10,4.8,
7.3,2.3,6.1,3,4.4,6.8,2.2,3.1,2,1.6 to 9.9,C=C1C(=O)OC2CC3=C[C@@H](C/C(C)=C/C(OC(=O)c4ccc(Br)cc4)[C@H]12)OC3=O (stereo partly shown) [DETD-34],> 10,> 10,> 7.5,
4.8,3,3.3,2.1,4.1,4.9,2.7,2,4.9,1.6 to 9.9,C=C1C(=O)OC2CC3=C[C@@H](C/C(C)=C/[C@@H](OC(=O)/C=C/c4ccc(OCC)cc4)[C@H]12)OC3=O (stereo partly shown) [DETD-60],> 10,> 10,4,
6.7,1.9,2.7,1.8,4.2,5.9,4.2,2.9,2.2,1.6 to 9.9,C=C1C(=O)OC2CC3=C[C@@H](C/C(C)=C/C(OC(=O)c4ccc(C)cc4)[C@H]12)OC3=O (stereo partly shown) [DETD-33],> 10,> 10,> 7.5,
4.5,2.8,3.1,2,3.6,3.5,3.1,1.7,4.5,1.6 to 9.9,C=C1C(=O)OC2CC3=C[C@@H](C/C(C)=C/C(OC(=O)Cc4cccc5cc(OC)ccc45)[C@H]12)OC3=O (stereo partly shown) [DETD-45],> 10,> 10,4.7,
